How the values were obtained:
[1] = test system: CLDN18.2-expressing gastric tumor cell lines NUGC-4, KATOIII and SNU-620; experiment: Upregulation of PD-L1 expression on tumor cells by supernatant of target cell/PBMC co-culture, flow cytometry; type: cell-based; conditions: supernatant of target cell + human PBMC (E/T 40:1) with 30 μg/ml 18B10 (S3), or of target cell with 5 ng/ml IFN-γ (S4), 72 h
Experimental: In this assay, three different CLDN18.2-expressing gastric tumor cell lines, NUGC-4 (JCRB, Cat #JCRBB0834), KATOIII (ATCC, Cat #HTB-103) and SNU-620 (Cobioer, Cat #CBP60508), were used as target cell and added to the cell culture plate. No antibody, 30 μg/ml of anti-CLDN18.2 antibody 18B10, 30 μg/ml of isotype control hIgG1 or 5 ng/ml IFN-γ were added into the corresponding wells with the target cell. After the plate was co-cultured at 37° C. for 30 mins, human PBMC as the effector cell was added with a E/T ratio of 40:1. The plate was incubated at 37° C. for 72 hours. At the end of incubation, 100 μl of cell culture supernatant of each well was transferred to another cell culture plate with the same target cell planted. After the second plate was incubated at 37° C. for 72 hours, the target cells were collected and analyzed for PD-L1 expression by flowcytometry using mouse anti-human PD-L1 antibody (BD Pharmingen, Cat #557924). S1 stood for the supernatant of the target cell alone; S2 stood for the supernatant of the target cell and human PBMC with isotype control hIgG1; S3 stood for the supernatant of the target cell and human PBMC with anti-CLDN18.2 antibody 18B10; S4 stood for the supernatant of the target cell with IFN-γ.

[2] = test system: CT26-CLDN18.2 syngeneic tumor; experiment: CT26-CLDN18.2 syngeneic tumor model, 18B10 and Atezolizumab; type: in vivo, BALB/c mice
From the text: CT26 is synergic mouse tumor model. CT26-CLDN18.2 was purchased from Kyinno (Cat #, KC-1195), which was stalely transfected with human CLDN18.2 expression. The tumor cells were routinely sub-cultured twice weekly by trypsin-EDTA treatment (Hyclone). The cells growing in an exponential growth phase were harvested and counted for tumor inoculation. Female SPF grade BALB/c mice were inoculated with 2×10^6 CT26-CLDN18.2 cells. Animal were selected and randomized to 4 groups (n=8) when tumors grow to 80-120 mm^3. Animals were then treated with either 10 mg/kg Isotype control, 10 mg/kg anti-CLDN18.2 antibody 18B10, 3 mg/kg anti-PD-L1 antibody Atezolizumab, or 10 mg/kg anti-CLDN18.2 antibody 18B10 and 3 mg/kg anti-PD-L1 antibody Atezolizumab twice a week for 3 weeks by i.p. injection. Tumor size was measured twice a week in two dimensions using a caliper (INSIZE) and the volume was expressed in mm^3 using the formula: V=0.5 a×b^2 where a and b are the long and short diameters of the tumor, respectively. Results were analyzed using Prism GraphPad and expressed as mean±S.E.M. Comparisons between two groups were made by T-test, and the difference is considered significant if p is *<0.05 and **<0.01.

[3] = test system: MC38-CLDN18.2 syngeneic tumor; experiment: MC38-CLDN18.2 syngeneic tumor model, 18B10 and Atezolizumab; type: in vivo, C57BL/6 mice
From the text: MC38-CLDN18.2 was purchase from Kyinno (Cat #, KC-1449), which was stable transfected with human CLDN18.2 expression. The tumor cells were routinely sub-culture twice weekly by trypsin-EDTA treatment (Hyclone). The cells growing in an exponential growth phase were harvested and counted for tumor inoculation. Female SPF grade C57BL/6 mice were inoculated with 2×10^6 MC38-CLDN18.2 cells. Animal were selected and randomized to 4 groups (n=6) when tumors grow to 70-100 mm^3. Animals were then treated with 13 mg/kg Isotype control, 10 mg/kg anti-CLDN18.2 antibody 18B10, 3 mg/kg anti-PD-L1 antibody Atezolizumab, 10 mg/kg anti-CLDN18.2 antibody 18B10 and 3 mg/kg anti-PD-L1 antibody Atezolizumab twice a week for 4 weeks by i.p. injection. Tumor size was measured twice a week in two dimensions using a caliper (INSIZE) and the volume was expressed in mm^3 using the formula: V=0.5 a×b^2 where a and b are the long and short diameters of the tumor, respectively. Results were analyzed using Prism GraphPad and expressed as mean±S.E.M. Comparisons between two groups were made by T-test, and the difference is considered significant if p is *<0.05 and **<0.01.

[4] = 18B10 10 mg/kg, Atezolizumab 3 mg/kg

| Substance | PD-L1 expression of target cells compared to S1 group (target cell alone) [1] | antitumor activity compared with isotype control [2, 4] | TGI ([2]; Day 33, 18B10 10 mg/kg, Atezolizumab 3 mg/kg, i.p. twice a week for 3 weeks) | Tumor size ([2]; Day 33, 18B10 10 mg/kg, Atezolizumab 3 mg/kg, i.p. twice a week for 3 weeks, mean ± S.E.M.) | CR ([2]; Day 33, animals per group) | antitumor activity compared with isotype control [3, 4] | TGI ([3]; Day 51, 18B10 10 mg/kg, Atezolizumab 3 mg/kg, i.p. twice a week for 4 weeks) | Tumor size ([3]; Day 51, 18B10 10 mg/kg, Atezolizumab 3 mg/kg, i.p. twice a week for 4 weeks, mean ± S.E.M.) | CR ([3]; Day 51, animals per group) |
| --- | --- | --- | --- | --- | --- | --- | --- | --- | --- |
| IFN-γ: IFN-γ, 5 ng/ml added to target cells as comparison (S4) [reference compound] | increased PD-L1 expression | – | – | – | – | – | – | – | – |
| Atezolizumab [reference compound] | – | better antitumor activity compared with treatment with isotype control | 71.16% | 1350.18 ± 366.69 mm^3 | 2/8 | better antitumor activity compared with treatment with isotype control | 71.14% | 1154.61 ± 526.35 mm^3 | 0/6 |
